In patent US20180244548A1, “USE OF COPPER-CARBON COMPOSITE NANOMATERIAL IN ALGAE CONTROL” (Suzhou Guanjie Nano Anti-bacteria Coating Technology Co., …, priority 2015, published 2018):
Several values for one entry are separate records, joined by “and”; a condition that tells them apart may be missing. Equal values may be shown once.

Columns and labels:
[1] = system: scenedesmus (green algae), chlorella (green algae) and microcystis aeruginosa (blue algae); assay: laboratory algae growth inhibition, α content of chlorophyll over time; type: cell-based; conditions: copper sulfate 6 ppm
[2] = system: scenedesmus, chlorella and microcystis aeruginosa cells; assay: scanning electron microscope appearance observation of algae cells; type: cell-based; conditions: nanomaterial 6.25-50 ppm; activated carbon 50 ppm; copper oxide 50 ppm; copper sulfate 6 ppm

## O=S(=O)([O-])[O-].[Cu+2] [copper sulfate]
[1]
  inhibition time of algae growth: 7 to 9 days and 7 days
[2]
  appearance of algae cells in scanning electron micrographs: completely changed
